Test results published in publication PMC7580737, “Synthesis, in vitro inhibitory activity, kinetic study and molecular docking of novel N-alkyl–deoxynojirimycin derivatives as potential α-glucosidase inhibitors” (Journal of Enzyme Inhibition and Medicinal Chemistry, 2020).
Read-outs that look alike come from different tables or passages of the source.

Key:
[1] = biological target: α-glucosidase (EC 3.2.1.20) (Saccharomyces cerevisiae, UniProt P53341); assay: biochemical; format: biochemical
α-glucosidase = biological target: T1, α-glucosidase (Saccharomyces cerevisiae, UniProt P53341); assay: Kinetic study of α-glucosidase inhibition (Lineweaver–Burk plots); format: biochemical; settings: for Type of inhibition: Lineweaver–Burk plots: Vmax not affected, Km increased; for Ki: determined by Lineweaver–Burk plots
T1 construct: purchased Sigma-Aldrich
T1 sequence (P53341 whole entry): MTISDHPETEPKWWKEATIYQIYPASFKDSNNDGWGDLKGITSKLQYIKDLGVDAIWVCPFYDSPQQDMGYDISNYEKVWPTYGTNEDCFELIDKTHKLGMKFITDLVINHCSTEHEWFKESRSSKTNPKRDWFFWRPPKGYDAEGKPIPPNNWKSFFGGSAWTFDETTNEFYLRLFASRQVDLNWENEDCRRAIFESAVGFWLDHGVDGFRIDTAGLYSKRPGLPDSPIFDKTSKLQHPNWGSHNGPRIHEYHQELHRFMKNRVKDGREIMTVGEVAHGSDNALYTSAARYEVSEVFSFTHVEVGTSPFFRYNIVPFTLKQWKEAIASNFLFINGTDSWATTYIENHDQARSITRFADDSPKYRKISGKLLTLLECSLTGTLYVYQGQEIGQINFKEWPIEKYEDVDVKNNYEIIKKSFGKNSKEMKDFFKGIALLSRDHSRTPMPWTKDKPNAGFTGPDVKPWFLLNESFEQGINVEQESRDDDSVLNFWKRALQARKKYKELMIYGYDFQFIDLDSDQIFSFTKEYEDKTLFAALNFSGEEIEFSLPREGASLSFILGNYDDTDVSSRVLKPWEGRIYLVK
Experimental: The type of inhibition and value of Ki were determined by Lineweaver–Burk plots.
The 10 µL of enzyme solution (1 U/mL) was incubated with different concentrations of compound 43 (0.00 mM,0.012 mM, 0.02 mM, 0.04 mM), 40 (0.00 mM, 0.06 mM, 0.10 mM, 0.20 mM)and 34 (0.00 mM, 0.30 mM, 0.50 mM, 1.00 mM) for 20 min at 37 °C, then added different concentrations of substrate (1 mM, 0.9 mM, 0.75 mM, 0.6 mM, 0.45 mM, 0.3 mM, 0.25 mM), and change in absorbance was measured for 20 min at 405 nm by using spectrophotometer.

[2] = phosphate buffer pH 6.8, 37 °C, PNPG substrate, mean ± SD, at least three experiments, read-out: IC50 (α-glucosidase inhibitory activity)

Sequence of α-glucosidase (EC 3.2.1.20) (P53341 whole entry): as above

| Compound | IC50 [1] [µM] | melting point [°C] | IC50 [1, 2] [µM] | other results |
| --- | --- | --- | --- | --- |
| O=C(/C=C/c1ccccc1)OCCN1C[C@H](O)[C@@H](O)[C@H](O)[C@H]1CO [Compound 25, 2-(3,4,5-Trihydroxy-2-(hydroxymethyl)piperidin-1-yl) ethyl cinnamate] | 1094 ± 1.8 | – | – | – |
| O=C(/C=C/c1ccccc1)OCCCN1C[C@H](O)[C@@H](O)[C@H](O)[C@H]1CO [Compound 26, 3-(3,4,5-Trihydroxy-2-(hydroxymethyl)piperidin-1-yl) ethyl cinnamate] | 1099 ± 1.1 | – | – | – |
| O=C(/C=C/c1ccccc1)OCCCCCCN1C[C@H](O)[C@@H](O)[C@H](O)[C@H]1CO [Compound 29] | 976.5 ± 0.7 | – | – | – |
| COC(=O)/C=C/c1ccc(OCCN2CC(O)C(O)C(O)C2CO)cc1 (stereo not drawn) [Compound 30, Methyl(E)-3-(4-(2-(3,4,5-trihydroxy-2-(hydroxymethyl)piperidin-1-yl)ethoxy)phenyl) acrylate] | 1272.2 ± 1.2 | 185 to 187 | – | – |
| COC(=O)C=Cc1ccc(OCCCN2CC(O)C(O)C(O)C2CO)cc1 (stereo not drawn) [Compound 31] | – | 104 to 107 | > 2000 | – |
| COC(=O)C=Cc1ccc(OCCCCN2CC(O)C(O)C(O)C2CO)cc1 (stereo not drawn) [Compound 32] | 667 ± 1.6 | 157 to 160 | – | – |
| COC(=O)C=Cc1ccc(OCCCCCN2CC(O)C(O)C(O)C2CO)cc1 (stereo not drawn) [Compound 33] | 602.3 ± 1.2 | 85 to 86 | – | – |
| COC(=O)C=Cc1ccc(OCCCCCCN2CC(O)C(O)C(O)C2CO)cc1 (stereo not drawn) [Compound 34] | 417 ± 0.14 | 110 to 113 | – | Type of inhibition (α-glucosidase): competitive inhibitors; Ki (α-glucosidase): 150 µM |
| CCOC(=O)/C=C/c1ccc(OCCN2CC(O)C(O)C(O)C2CO)c(OC)c1 (stereo not drawn) [Compound 35, Ethyl(E)-3-(3-methoxy-4-(2-(3,4,5-trihydroxy-2-(hydroxymethyl)piperidin-1-yl)ethoxy)phenyl)acrylate] | 966.2 ± 0.4 | 146 to 148 | – | – |
| CCOC(=O)C=Cc1ccc(OCCCN2CC(O)C(O)C(O)C2CO)c(OC)c1 (stereo not drawn) [Compound 36] | – | – | > 2000 | – |
| CCOC(=O)C=Cc1ccc(OCCCCN2CC(O)C(O)C(O)C2CO)c(OC)c1 (stereo not drawn) [Compound 37] | – | – | > 2000 | – |
| CCOC(=O)C=Cc1ccc(OCCCCCN2CC(O)C(O)C(O)C2CO)c(OC)c1 (stereo not drawn) [Compound 38] | – | – | > 2000 | – |
| CCOC(=O)C=Cc1ccc(OCCCCCCN2CC(O)C(O)C(O)C2CO)c(OC)c1 (stereo not drawn) [Compound 39, Ethyl(E)-3-(3-methoxy-4-(6-(3,4,5-trihydroxy-2-(hydroxymethyl)piperidin-1-yl)ethoxy)phenyl)acrylate] | – | – | > 2000 | – |
| O=C(/C=C/c1ccccc1)c1ccccc1OCCN1CC(O)C(O)C(O)C1CO (stereo not drawn) [Compound 40, (E)-3-phenyl-1-(2-(2-(3,4,5-trihydroxy-2-(hydroxymethyl)piperidin-1-yl)ethoxy)phenyl)prop-2-en-1-one] | 160.5 ± 0.6 | – | – | fold more active than acarbose [1]: around 5 fold; Type of inhibition (α-glucosidase): competitive inhibitors; Ki (α-glucosidase): 52 µM |
| O=C(C=Cc1ccccc1)c1ccccc1OCCCCCN1CC(O)C(O)C(O)C1CO (stereo not drawn) [Compound 43] | 30 ± 0.6 | – | – | fold more active than 1-DNJ [1]: ~7 fold; fold more active than acarbose [1]: ~27 fold; Type of inhibition (α-glucosidase): competitive inhibitors; Ki (α-glucosidase): 10 µM |
